Experimental data reported in PMC11689655, “High-throughput screening of dual-target inhibitors for SARS-CoV-2 main protease and papain-like protease from Chebulae Fructus: in silico prediction and experimental verification” (Frontiers in Microbiology, 2024).
Where two headings read alike, the source gives them in different places.

Key:
[1] = tested on: SARS-CoV-2 Omicron EG.5; assay: Antiviral activity (CPE inhibition) in Vero E6 cells, Omicron EG.5; format: cell-based; conditions: read-out: EC50 against Omicron EG.5 variant
[2] = tested on: SARS-CoV-2 Omicron BA.5; assay: Antiviral activity (CPE inhibition) in Vero E6 cells, Omicron BA.5; format: cell-based; conditions: read-out: EC50 against Omicron BA.5 variant
[3] = Severe acute respiratory syndrome coronavirus 2, Vero C1008, 48 h

Structure (SMILES) | EC50 [1, 3] | EC50 [2, 3] | EC50 [1] | EC50 [2]
O=C(OC[C@H]1O[C@@H](OC(=O)c2cc(O)c(O)c(O)c2)[C@H](OC(=O)c2cc(O)c(O)c(O)c2)[C@@H](OC(=O)c2cc(O)c(O)c(O)c2)[C@@H]1OC(=O)c1cc(O)c(O)c(O)c1)c1cc(O)c(O)c(O)c1 [PGG, 1,2,3,4,6-penta-O-galloyl-β-D-glucose] | 15.4 µM | 3.2 µM | – | –
Cn1cnc(Cn2c(=O)[nH]/c(=N\c3cc4cn(C)nc4cc3Cl)n(Cc3cc(F)c(F)cc3F)c2=O)n1 [S-217622, reference compound] | – | – | 0.06 µM | 0.09 µM
O=C(OC[C@H]1O[C@@H](OC(=O)c2cc(O)c(O)c(O)c2)[C@H](OC(=O)c2cc(O)c(O)c(O)c2)[C@@H](OC(=O)c2cc(O)c(O)c(O)c2)[C@@H]1O)c1cc(O)c(O)c(O)c1 [TGG, 1,2,3,6-tetra-O-galloyl-β-D-glucose] | 37.3 µM | 25.7 µM | – | –
